Measured values published in paper PMC11428279, “Exploring Structure–Activity Relationships and Modes of Action of Laterocidine” (ACS Central Science, 2024).
Values after ≈ are worked out from the molar mass of the structure shown. Read-outs that look alike come from different tables or passages of the source. Bridge positions count the residues as written; N and C are the ends. Square brackets hold non-standard residues; d marks the D form. Peptide text beside a SMILES is read from it. * marks the point of attachment. Octanoyl(7-Me) = CC(C)CCCCCC(=O)*; dOrn = NCCC[C@@H](N)C(=O)O; Orn = NCCC[C@H](N)C(=O)O

Columns and labels:
[1] = test system: P. aeruginosa PAO1R; test: MIC; type: cell-based; details: polymyxin-resistant paired strain of PAO1
[2] = test system: P. aeruginosa FADDI-PA070; test: Neutropenic murine bloodstream infection model; type: in vivo, P. aeruginosa in mice; details: 8 mg/kg iv (free base) 2 h postinoculation, neutropenic mice, 4 h time point, N = 3, mean
Description: (§1) All animal studies were approved by the Monash University Animal Ethics Committee and involved female Swiss mice (22–28 g, 7-week-old) housed in microisolators within a PC2 animal laboratory. Mice were kept under a 12/12 h dark/light cycle at 20–24 °C and 50–70% ambient humidity.
The neutropenic bloodstream infection model was undertaken as previously described.[39] Mice were rendered neutropenic through intraperitoneal injections of cyclophosphamide administered 4 days (150 mg/kg) and 1 day (100 mg/kg) prior to inoculation. Bloodstream infection was established by administering a 50 μL bolus of early log-phase bacterial suspension (4 × 10^8 CFU/mL). Laterocidine, peptide 11, and polymyxin B solutions were prepared in sterile saline at a concentration of 1 mg/mL (free base). Two hours postinoculation, mice (n = 3) were injected intravenously with either polymyxin B at 4 mg/kg (free base), peptide 11 at 8 mg/kg (free base), laterocidine at 8 mg/kg (free base), or saline (control mice). Blood was collected immediately after (0 h) and 4 h after drug administration, serially diluted with sterile saline, and appropriately diluted samples manually plated on nutrient agar prior to overnight incubation at 37 °C. Colonies were counted manually and the bacterial load (log10 CFU/mL) in the blood of each mouse calculated. In vivo efficacy was calculated as the difference between the log10 CFU/mL blood values of treated and control mice 4 h postdosing (Δlog10 CFU/mL blood = log10 [treated] CFU/mL blood–log10[control] CFU/mL blood).[54]

[3] = test system: P. aeruginosa PAO1; test: Flow cytometry of bacterial membrane integrity, respiration, polarity and oxidative stress; type: cell-based; details: 1 h exposure
Description: The live cell impermeant fluorophore propidium iodide (PI) (Sigma-Aldrich, Castle Hill, NSW, Australia) was used to assess loss of membrane integrity (Ex/Em 488/660–690 nm) and the redox probe 5-cyano-2,3-ditolyl tetrazolium chloride (CTC) (Sigma-Aldrich, Castle Hill, NSW, Australia) used to assess loss of cellular respiration (Ex/Em 450/630 nm). […] Intracellular oxidative stress was measured using CR-G (CellROX Green) (Sigma-Aldrich, Castle Hill, NSW, Australia, Ex/Em 488/660–690 nm).[58] Appropriately diluted samples (600 μL) were stained separately with 12.5 μM PI, 2.5 mM CTC, 6 μM DiBAC, and 2.5 μM CR-G. Samples stained with both PI and DiBAC were incubated for 2 min and immediately analyzed. Samples stained with both CTC and CR-G were incubated for 45 min at RTP, and excess dye was pelleted out prior to analysis. Fluorescence intensity data were analyzed and log transformed using the NovoExpress software (V2.1, ACEA Biosciences, USA).[34]

[4] = test system: A. baumannii 5075R; type: cell-based; details: lipid A modified with phosphoethanolamine
[5] = test system: P. aeruginosa PAO1; test: MIC; type: cell-based; details: polymyxin-susceptible reference strain
[6] = test system: A. baumannii 5075 (wild type); test: MIC; type: cell-based
[7] = test system: A. baumannii 5075D; type: cell-based; details: lacks lipid A in the outer membrane
[8] = test system: Gram-negative strains of P. aeruginosa, A. baumannii, K. pneumoniae, and E. cloacae; type: cell-based
Description: (§2) MICs for laterocidine and its various analogues were determined by broth microdilution[49] for the following polymyxin-susceptible ATCC and clinical isolates: P. aeruginosa FADDI-PA022, FADDI-PA001, FADDI-PA025, FADDI-PA070, FADDI-PA060; A. baumannii FADDI-AB134, FADDI-AB034, FADDI-AB030, FADDI-AB174, FADDI-AB241; K. pneumoniae FADDI-KP032, FADDI-KP022, BM1, FADDI-KP065, FADDI-KP064, FADDI-KP003; and E. cloacae FADDI-EC001, FADDI-EC003, and FADDI-EC006. Experiments were performed with cation-adjusted Mueller–Hinton broth (CAMHB) in 96-well polystyrene microtiter plates. Wells were inoculated with 100 μL of bacterial suspension prepared in CAMHB (containing ∼10^6 CFU/mL) and 100 μL of CAMHB containing increasing concentrations of polymyxins (0–32 μg/mL). MIC measurements were performed in duplicate, with the MIC being the lowest concentration at which visible growth was inhibited following 18–20 h of incubation at 37 °C. Bacterial killing kinetics was investigated over 24 h as described previously.[50]

[9] = test system: E. cloacae; type: cell-based
Description: as §2

[10] = test system: K. pneumoniae; type: cell-based
Description: as §2

[11] = test system: P. aeruginosa; type: cell-based
Description: as §2

[12] = test system: female Swiss mice; test: Acute toxicity in mice (maximum tolerable dose); type: in vivo; details: intravenous bolus via lateral tail vein, free base, N = 3
Description: as §1
For the acute toxicity studies, peptide 11 and laterocidine solutions were prepared in 0.9% saline and stored at 4 °C before use. All mice were administered an intravenous bolus of one peptide (mg/kg free base) via a lateral tail vein (≤0.1 mL). Following the injection, mice were released back into their respective home cages and individually monitored for 24 h for signs of clinical toxicity. Mice displaying any signs of toxicity were humanely euthanized according to the recommended Euthanasia/Humane Experimental End point Criteria.

[13] = test system: E. coli O111:B4 LPS; test: 1H NMR titration with LPS; type: binding; details: 23 °C, 50 mM acetate buffer pH 4.5, 1.5 mM peptide, 16 μL of 10 mg/mL LPS
Description: NMR samples contained 0.75–2.0 mM laterocidine in a 50 mM acetate (d6) NMR buffer (90% H2O:10% D2O, pH 4.5 or ∼100% D2O, pH 4.5). Experiments were recorded on a Bruker 600 MHz NMR spectrometer equipped with a cryoprobe and Z axis gradient. 2D ^13C HSQC and 2D ^13C–^1H H2BC were recorded using gradients for coherence selection and sensitivity enhancement and additional presaturation of the solvent signal when required. 1D ^1H, 2D ^1H–^1H NOESY (with mixing times 35–200 ms), and 2D ^1H–^1H TOCSY experiments (mixing time 70 ms) used an excitation sculpting, DPFGSE sequence for water suppression.[51] Typical acquisition times for the 2D ^1H–^1H NOESY experiments were 524 ms (t2) and 40 ms (t1). For transferred LPS experiments, NMR data was recorded at 23–25 °C which was optimized for the least amide peak overlap. 2D ^1H–^1H NOESY spectra for the free peptide were also recorded at 23 °C. Spectra were processed with nmrPipe[52] or Topspin and analyzed with Xeasy[53] or NMRFAM Sparky.[54] Backbone assignments were made using the standard sequential NOE based assignment strategy using 2D ^1H–^1H TOCSY and 2D ^1H–^1H NOESY data. Side chain assignments were further aided using the 2D ^13C–^1H H2BC experiment. 1D ^1H STD experiments were recorded using excitation sculpting for water suppression. […]

[14] = test system: P. aeruginosa PAO1; test: Static time-kill study; type: cell-based
Description: as §2

[15] = test system: P. aeruginosa PAO1R; test: Static time-kill study; type: cell-based; details: 8 × MIC, over 24 h
Description: as §2

[16] = listed as Laterocidine (peptide 1)

CC[C@H](C)[C@@H]1NC(=O)[C@@H](NC(=O)[C@H](Cc2c[nH]c3ccccc23)NC(=O)[C@@H](CCCN)NC(=O)CNC(=O)[C@H](CCCN)NC(=O)[C@@H](CCCN)NC(=O)[C@@H](Cc2c[nH]c3ccccc23)NC(=O)[C@@H](Cc2ccc(O)cc2)NC(=O)[C@@H](CO)NC(=O)CCCCCC(C)C)[C@@H](C)OC(=O)CNC(=O)CNC(=O)[C@H](CC(N)=O)NC1=O [Laterocidine] ({Octanoyl(7-Me)}-[dS][dY][dW][dOrn][Orn]G[dOrn]WTINGG; ester 9-C)
MIC, P. aeruginosa PAO1R [1]: 8 µg/mL (≈ 4.98 µM) | Bacteria load in blood ([2]; listed as Peptide 1): 16.93% | Bacteria load in blood ([2]; listed as peptide 1): 16.9% | membrane integrity (propidium iodide fluorescence) ([3]; 1 × MIC (2 μg/mL)): no loss of membrane permeability | metabolic activity (CTC fluorescence) ([3]; 1 × MIC (2 μg/mL)): unaffected | intracellular oxidative stress (CellROX Green) ([3]; 1 × and 8 × MIC): increase at both 1 × and 8 × MIC | membrane potential (DiBAC fluorescence) ([3]; 1 × and 8 × MIC): extensive loss of membrane potential at each concentration | membrane integrity (propidium iodide fluorescence) ([3]; 8 × MIC (16 μg/mL)): substantial increase in permeability | metabolic activity (CTC fluorescence) ([3]; 8 × MIC (16 μg/mL)): markedly reduced | MIC, A. baumannii 5075 R [4]: 32 µg/mL (≈ 19.9 µM) | MIC, A. baumannii 5075 R [4, 16]: > 32 µg/mL | MIC, P. aeruginosa PAO1 [5]: 8 µg/mL (≈ 4.98 µM) | MIC, A. baumannii 5075 S [6]: 8 µg/mL (≈ 4.98 µM) | MIC, A. baumannii 5075 D [7]: 32 µg/mL (≈ 19.9 µM) | MIC, A. baumannii 5075 D [7, 16]: > 32 µg/mL | MICs against the MDR strains (range) [8]: 1 to 16 µg/mL | MICs against E. cloacae (range over strains) [9]: 1 to 2 µg/mL | MICs against K. pneumoniae (range over strains) [10]: 1 to 4 µg/mL | MICs against P. aeruginosa (range over strains) [11]: 4 to 8 µg/mL | maximum tolerable dose (MTD), Iv (Bolus) [12]: 13.2 mg/kg | binding affinity to LPS (line broadening in 1H NMR titration) [13]: weak to moderate binding affinity | regrowth at 24 h, P. aeruginosa PAO1 ([14]; 4 × MIC, 24 h): ~2 log 10 CFU/mL | time-kill outcome against P. aeruginosa PAO1 ([14]; 8 × MIC, over 24 h): bacterial eradication was achieved at 24 h | time-kill outcome against P. aeruginosa PAO1R [15]: substantial regrowth occurring at all concentrations
